Patent US20110081674A1, “CONTINUOUS-FLOW DEFORMABILITY-BASED CELL SEPARATION” (priority 2009, published 2011)

Test system: red blood cells (RBCs)
Test: Deformability and mobility of glutaraldehyde-treated red blood cells at slits of the microfluidic device
Assay type: cell-based
Text: FIG. 4 illustrates embodiments of: A. red blood cells (RBCs) aligned at the entrance of a 1 μm slit under a pressure difference of 40 kPa. […] Because the surface-area to volume ratio of RBCs is constrained, they are unable to pass through slits less than a certain gap width apart. B. RBCs treated with 0.1% Glutaraldehyde (GA) maintain their biconcave structure at the entrance of 2 μm slits under a pressure difference of 40 kPa. Glutaraldehyde cross-links proteins in the membrane and in the cytosol of RBCs, making them stiffer. […] C. Mobility vs. GA concentration. […] The slit gap is the vertical gap that defines the spacing between the two substrates at the trenches area. These are the shallow regions of a unit of the sorter.
With reference to FIG. 4A, a solution of PBS 1× and 0.2% w/v Pluronic F108 (a surfactant) and Bovine Serum Albumin 1% w/v (another surfactant) was prepared. The device was filled with this solution by applying pressure to one of the reservoirs. 1 μL of whole blood was mixed with 100 μL of this solution. The mixture was injected into the entrance reservoir of the device shown by using a syringe. The pressure difference between the two reservoirs was 40 kPa and was generated by using a pressure regulator. The cell concentration was approximately 0.5% hematocrit. Mobility was measured by tracking individual cells over a distance of 100 μm.

With `O=CCCCC=O` [Glutaraldehyde] the “Ability of treated RBCs to deform and pass through slits” value (RBCs treated with 0.1% Glutaraldehyde, 2 μm slits, pressure difference 40 kPa) was “unable to pass through 2 μm slits” and the “Mobility vs. GA concentration” value (higher GA concentration, given ambient fluid velocity) was “decreased mobility”.
